Patent US20120270251A1, “INHIBITION OF THE ACTIVITY OF KINASE AND SYNTHETASE ENZYMES” (CSIR, priority 2009, published 2012)
Like-named read-outs stand apart in the source and are kept apart here.

Legend:
Assay type in all cases: biochemical
[1] = biological target: T1, AK1 (Homo sapiens, UniProt P00568); assay: AK1 enzyme activity with ATP versus deuterated ATP
T1 sequence (P00568 1-194): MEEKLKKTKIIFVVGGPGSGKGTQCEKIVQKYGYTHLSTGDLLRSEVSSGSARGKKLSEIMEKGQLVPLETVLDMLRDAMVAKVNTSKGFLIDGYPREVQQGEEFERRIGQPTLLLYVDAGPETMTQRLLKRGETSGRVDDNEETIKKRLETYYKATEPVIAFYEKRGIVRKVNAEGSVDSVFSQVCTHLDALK
Description: The assay is carried out in the presence of ATP and AMP measuring the formation of ADP. […] A kinetic isotope effect is also obtained when comparing the activity of the enzyme when the reaction is carried out in the presence of AMP and deuterated AMP. A further KIE is obtained when both deuterated ATP and deuterated AMP are used in the reaction. […] The KIE is obtained by dividing the activity of the enzyme in the presence of the proteated species (vH) by the enzyme activity in the presence of the deuterated species (vD) and is vH/vD=0.5. […] The proposed basic reaction mechanisms by which all forms of kinase are regulated occurs via either the formation of an immonium species at N7, which in turn induces the formation of a carbene at C8 or via the delocalization of electrons away from the C8 rendering the C8 more acidic. An immonium species may be induced at N7 by (1) protonation via a coordinated HCO3^−, (2) carboxylation of the N7, or (3) the coordination of an amino acid side chain within the active site such as a arginine, glutamine, lysine or histidine. The different forms of regulation are then based on the mechanism by which the carbene formed at C8 is stabilized and the mechanism by which the C8-H is deprotonated or via the interaction of the protein coordinated amino acid side chains affecting the delocalization of electrons around the adenyl ring of the nucleotide.

[2] = biological target: B. stearothermophilus phosphofructokinase (Geobacillus stearothermophilus, UniProt P00512); settings: for Hill factor (h): allosteric sigmoidal model
Sequence of B. stearothermophilus phosphofructokinase (P00512 whole entry): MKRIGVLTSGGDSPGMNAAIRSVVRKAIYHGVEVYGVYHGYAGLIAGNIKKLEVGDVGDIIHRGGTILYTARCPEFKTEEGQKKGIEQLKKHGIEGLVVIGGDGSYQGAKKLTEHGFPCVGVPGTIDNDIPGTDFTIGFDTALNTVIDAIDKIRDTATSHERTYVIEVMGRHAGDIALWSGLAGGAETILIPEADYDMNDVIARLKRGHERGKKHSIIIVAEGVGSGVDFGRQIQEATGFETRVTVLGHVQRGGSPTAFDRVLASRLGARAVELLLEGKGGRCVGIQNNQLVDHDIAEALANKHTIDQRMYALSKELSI

[3] = biological target: T2, Escherichia coli acetate kinase (Escherichia coli, UniProt P0A6A3); assay: Acetate kinase steady-state kinetics, ATP vs C8D-ATP
T2 construct: purchased Sigma A7437
T2 sequence (P0A6A3 whole entry): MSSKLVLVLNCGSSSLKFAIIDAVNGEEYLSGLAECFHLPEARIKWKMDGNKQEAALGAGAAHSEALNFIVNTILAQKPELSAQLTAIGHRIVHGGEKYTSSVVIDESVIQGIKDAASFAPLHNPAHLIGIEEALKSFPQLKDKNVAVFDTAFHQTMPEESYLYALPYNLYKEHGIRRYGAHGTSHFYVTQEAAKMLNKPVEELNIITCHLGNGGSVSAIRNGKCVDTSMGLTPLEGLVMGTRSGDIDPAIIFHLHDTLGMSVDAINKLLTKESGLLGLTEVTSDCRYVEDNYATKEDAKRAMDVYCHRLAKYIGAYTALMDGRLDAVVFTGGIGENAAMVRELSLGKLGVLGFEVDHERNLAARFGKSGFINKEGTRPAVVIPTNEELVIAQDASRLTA
Text: Hexokinase from Saccharomyces cerevisiae Type F-300 (Sigma, H4502) and Acetate kinase from E. coli (Sigma, A7437) were purchased. The human adenylate kinase (AK1) gene in vector pLIG-SC1 was obtained from the Structural Genomics Consortium (code AK1A). The His-tagged AK1 was produced in Escherichia coli Origami (DE3) and purified using the Bio-Rad Profinia Purification System. […] The Mycobacterium tuberculosis shikimate kinase gene in pET15b (Novagen) was obtained from the group of Chris Abell, Cambridge University, UK. The his-tagged MtSK was produced in E. coli BL21 (DE3) and purified using the Bio-Rad Profinia Purification System. The pure protein was dialysed against 50 mM Tris (pH 7.5) and 1,000 mM NaCl. Adenylylated (GS12) and deadenylylated (GS0) glutamine synthetase were prepared as outlined below.
The assay was incubated at 30° C. for 30 minutes and stopped by the addition of 1 μl of 50% TCA. The formation of ADP was analysed by HPLC.
The results are reflected in FIGS. 19 to 25. […] The best-fit to the data was obtained for the specified kinetic model using the non-linear regression algorithms as outlined using the GraphPad Prism® 5 software. […] These response curves were then used to define the KIE by the conventional estimation of KIE from KIE=vH/vD. The KIED was also determined using the following function: […]

[4] = biological target: Escherichia coli adenylylated glutamine synthetase (GS12) (Escherichia coli, UniProt P0A9C5); settings: for Hill factor (h): allosteric sigmoidal model
Sequence of Escherichia coli adenylylated glutamine synthetase (GS12) (P0A9C5 2-469): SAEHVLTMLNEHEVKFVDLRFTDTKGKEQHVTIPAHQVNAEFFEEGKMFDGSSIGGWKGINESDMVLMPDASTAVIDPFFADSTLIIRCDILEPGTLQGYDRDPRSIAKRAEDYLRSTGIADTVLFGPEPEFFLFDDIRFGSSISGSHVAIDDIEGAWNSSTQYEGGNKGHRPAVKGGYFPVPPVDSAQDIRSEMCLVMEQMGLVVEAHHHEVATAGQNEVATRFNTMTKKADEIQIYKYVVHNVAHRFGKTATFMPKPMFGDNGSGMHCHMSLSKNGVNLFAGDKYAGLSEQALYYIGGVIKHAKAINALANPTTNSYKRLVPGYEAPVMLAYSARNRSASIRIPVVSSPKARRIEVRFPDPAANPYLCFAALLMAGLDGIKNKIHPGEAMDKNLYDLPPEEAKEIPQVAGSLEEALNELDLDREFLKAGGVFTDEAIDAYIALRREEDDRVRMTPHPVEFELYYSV

[5] = biological target: Escherichia coli deadenylylated glutamine synthetase (GS0) (Escherichia coli, UniProt P0A9C5); settings: for Hill factor (h): allosteric sigmoidal model
Sequence of Escherichia coli deadenylylated glutamine synthetase (GS0) (P0A9C5 2-469): as above

[6] = test system: Saccharomyces cerevisiae hexokinase; assay: Hexokinase steady-state kinetics, ATP vs C8D-ATP
[7] = biological target: T1, AK1; assay: Effect of ATPS and C8-D ATPS on synthesis of ADP by AK1; settings: 0.2-1.0 mM, 0.6 mM ATP, 0.6 mM AMP, pH 7.2
Description: Increasing concentrations of ATPS or C8-D ATPS were added; 0.2, 0.4, 0.6, 0.8, and 1.0 mM. Assays, in a final volume of 1 ml, were allowed to proceed for 45 mins at 37° C., before 6 μl 100% TCA was added to stop the reaction. […] The assay where no ATPS or C8-D ATPS was added produced 0.19 mM ADP.

[8] = tested model: Allosteric sigmoidal

SMILES | Hill factor (h) [2] | fit to kinetic model [3, 8] | fit to kinetic model ([3]; tested model: Michaelis-Menton) | Hill factor (h) [4] | fit to kinetic model [4, 8] | fit to kinetic model ([4]; tested model: Michaelis-Menton) | Hill factor (h) [5] | fit to kinetic model [5, 8] | fit to kinetic model ([5]; tested model: Michaelis-Menton) | fit to kinetic model [6, 8] | fit to kinetic model ([6]; tested model: Michaelis-Menton) | inhibition of AK1 [7] | also measured
Nc1ncnc2c1ncn2[C@@H]1O[C@H](COP(=O)(O)OP(=O)(O)OP(=O)(O)O)[C@@H](O)[C@H]1O [ATP, adenosine triphosphate, reference compound] | 1.37 | Allosteric sigmoidal | Fit ambiguous | 1.77 | Allosteric sigmoidal | Fit ambiguous | 3.10 | Allosteric sigmoidal | Fit ambiguous | Allosteric sigmoidal | Fit ambiguous |  | reduction in AK1 enzyme activity using ATP compared with ATP deuterated at position C8 ([1]; low ATP concentrations): 50%; Hill factor (h) ([3]; allosteric sigmoidal model): 2.08; Hill factor (h) ([6]; allosteric sigmoidal model): 1.75
Nc1ncnc2c1ncn2[C@@H]1O[C@H](COP(=O)(O)OP(=O)(O)OP(O)(O)=S)[C@@H](O)[C@H]1O [ATPS, Adenosine 5′-[γ-thio]triphosphate, reference compound] |  |  |  |  |  |  |  |  |  |  |  | inhibit | 
[2H]c1nc2c(N)ncnc2n1C1OC(COP(=O)(O)OP(=O)(O)OP(O)(O)=S)C(O)C1O (stereo not shown) [C8-D ATPS] |  |  |  |  |  |  |  |  |  |  |  | inhibit | inhibition of AK1 compared with ATPS [7]: significantly more inhibition
Nc1ncnc2c1ncn2[C@@H]1O[C@H](COP(=O)(O)OP(=O)(O)OP(=O)(O)O)[C@@H](O)[C@H]1O [C8D-ATP] | 1.79 | Fit ambiguous | Michaelis-Menton | 0.92 | Allosteric sigmoidal | Fit ambiguous | 4.08 | Allosteric sigmoidal | Fit ambiguous | Fit ambiguous | Michaelis-Menton |  | reduction in AK1 activity in the presence of deuterated ATP ([1]; high ATP concentrations): ≥ 50%; KIEvmax ([2]; KIE at maximum enzyme activity): 2; KIED ([2]; asymptote at Vmax): 0.5; KIED ([2]; low ATP concentrations): > 5; fit to kinetic model [2, 8]: Allosteric sigmoidal; fit to kinetic model ([2]; tested model: Michaelis-Menton): Fit ambiguous; KIEvmax ([3]; KIE at maximum enzyme activity): 1; KIED ([3]; asymptote at Vmax): 1; KIED ([3]; low ATP concentrations): > 5; KIEvmax ([4]; KIE at maximum enzyme activity): 2; KIED ([4]; asymptote at Vmax): 0.5; KIED ([4]; low ATP concentrations): > 5; KIEvmax ([5]; KIE at maximum enzyme activity): 1; KIED ([5]; asymptote at Vmax): 1; KIED ([5]; low ATP concentrations): > 5; KIEvmax ([6]; KIE at maximum enzyme activity): 1; KIED ([6]; asymptote at Vmax): 1; KIED ([6]; low ATP concentrations): > 5
